ChEMBL document CHEMBL5120783, “Procyanidins and Phlobatannins from the Twigs of Rosa multiflora and Their Neuroprotective Activity” (J Nat Prod, 2022)

Experiments:
BV-2 = test: Anti-neuroinflammatory activity in mouse BV-2 cells assessed as inhibition of LPS-induced NO production; type: functional, cell-based
[1] = Cytotoxicity against mouse BV-2 cells assessed as cell viability at 25 uM by MTT assay; type: toxicity, cell-based; conditions: read-out: Activity
[2] = Cytotoxicity against rat C6 cells assessed as cell viability at 25 uM by MTT assay; type: toxicity, cell-based; conditions: read-out: Activity
C6 = test: Neuroprotective activity in rat C6 cells assessed as NGF secretion level at 25 uM measured after 24 hrs by ELISA; type: functional

Molecule `COc1cc([C@@H]2Oc3cc(CCCO)cc(O)c3O[C@H]2CO)ccc1O` has an IC50 (BV-2) of 36.9 µM and a viability at 25 µM [1] of 92.4%.
`CCCCC/C=C/C(=O)CCc1ccc(O)c(OC)c1` [SHOGAOL] gave a viability at 25 µM [2] of 116% and an Activity (C6) of 118.5%.
In the case of `OC[C@H]1O[C@@H](O[C@H]2c3ccc(O)cc3O[C@@H](c3ccc(O)cc3)[C@@H]2O)[C@H](O)[C@@H](O)[C@@H]1O`, the IC50 (BV-2) is reported as 51.5 µM, the viability at 25 µM [2] is reported as 102% and the Activity (C6) is reported as 103.8%. For the same molecule, the viability at 25 µM [1] was 98.9%.
With `COc1cc([C@@H]2Oc3cc(CCCO)cc(O)c3O[C@H]2CO)ccc1O[C@@H]1O[C@H](CO)[C@@H](O)[C@H](O)[C@H]1O` the IC50 (BV-2) was 50.6 µM, the viability at 25 µM [2] was 99.2% and the Activity (C6) was 107.6%. The viability at 25 µM [1] was 95.9%.
For `CNC(=N)NCCC[C@H](N)C(=O)O` [TILARGININE], the IC50 (BV-2) was 27.2 µM and the viability at 25 µM [1] was 104%.
